Test results reported in paper PMC7655034, “Identification of a dual TAOK1 and MAP4K5 inhibitor using a structure-based virtual screening approach” (Journal of Enzyme Inhibition and Medicinal Chemistry, 2020).
Values joined by “and” are separate entries in the source; they are usually repeats but may differ in a detail not shown here. Equal entries are not always repeated.

Columns and labels:
MAP4K5 = target: T1, MAP4K5 (Homo sapiens, UniProt Q9Y4K4); assay: Enzymatic assay (Z'-LYTE, Thermo Fisher); format: biochemical; conditions: for Inhibition percentage at 10 μM MAP4K5 / inhibition at 10 µM: 10 μM compound, average of two replicates; for inhibition at 10 µM: read-out: Inhibition percentage at 10 μM MAP4K5
T1 construct: purchased Thermo Fisher Scientific (outsourced assay service)
Protocol: (§1) The enzymatic assay was outsourced to Thermo Fisher Scientific to conduct. They used LanthaScreen and Z´-LYTE technology, which were both robust homogeneous assays method by Fluorescence Resonance Energy Transfer (FRET) to evaluate TAOK1 and MAP4K5, respectively. Briefly, the test compound was co-incubated with fluorescein-labelled substrate, kinase, ATP, kinase buffer and development reagent for reaction. After 1 h, the stop solution (EDTA) was added and then the results were determined by a fluorescence reader. The data was shown as an average of two replicates.

TAOK1 = target: T2, TAOK1 (Homo sapiens, UniProt Q7L7X3); assay: Enzymatic assay (LanthaScreen, Thermo Fisher); format: biochemical; conditions: for Inhibition percentage at 10 μM TAOK1 / inhibition at 10 µM: 10 μM compound, average of two replicates; for inhibition at 10 µM: read-out: Inhibition percentage at 10 μM TAOK1
T2 construct: purchased Thermo Fisher Scientific (outsourced assay service)
T2 sequence (Q7L7X3 1-1001): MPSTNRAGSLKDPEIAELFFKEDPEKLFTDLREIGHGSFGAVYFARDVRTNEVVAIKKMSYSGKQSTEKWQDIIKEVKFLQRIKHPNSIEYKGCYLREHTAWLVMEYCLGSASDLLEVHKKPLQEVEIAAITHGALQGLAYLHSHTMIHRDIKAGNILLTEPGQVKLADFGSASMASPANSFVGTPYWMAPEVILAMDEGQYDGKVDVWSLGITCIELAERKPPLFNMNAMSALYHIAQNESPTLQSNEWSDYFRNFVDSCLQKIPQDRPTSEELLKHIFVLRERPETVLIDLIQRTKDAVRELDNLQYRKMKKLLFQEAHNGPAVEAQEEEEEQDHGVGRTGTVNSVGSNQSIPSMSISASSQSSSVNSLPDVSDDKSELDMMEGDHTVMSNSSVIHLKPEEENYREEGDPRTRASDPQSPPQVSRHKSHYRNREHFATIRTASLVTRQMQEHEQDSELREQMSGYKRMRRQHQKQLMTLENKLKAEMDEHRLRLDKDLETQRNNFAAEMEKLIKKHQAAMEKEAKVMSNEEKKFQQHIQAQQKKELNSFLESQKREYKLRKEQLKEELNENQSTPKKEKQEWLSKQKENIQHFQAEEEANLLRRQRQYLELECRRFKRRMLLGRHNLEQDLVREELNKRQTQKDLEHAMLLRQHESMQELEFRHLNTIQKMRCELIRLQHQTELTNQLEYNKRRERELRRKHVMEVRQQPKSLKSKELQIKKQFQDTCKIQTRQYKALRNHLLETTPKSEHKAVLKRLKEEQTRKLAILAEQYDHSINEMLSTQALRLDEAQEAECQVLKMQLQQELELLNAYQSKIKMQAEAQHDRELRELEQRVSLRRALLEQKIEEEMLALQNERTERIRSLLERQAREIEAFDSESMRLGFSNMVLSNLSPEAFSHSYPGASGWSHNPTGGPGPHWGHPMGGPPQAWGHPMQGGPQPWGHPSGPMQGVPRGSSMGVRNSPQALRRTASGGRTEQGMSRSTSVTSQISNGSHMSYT
Protocol: as §1

H1299 cells [1] = assay: SRB cell proliferation assay; format: cell-based; conditions: Homo sapiens, NCI-H1299, 48 h, read-out: GI50 (50% of growth inhibition)
Protocol: (§2) Human colorectal cancer cell lines HCT116, HT-29 and human lung cancer cell line, H1299 were purchased from the Bioresource Collection and Research Centre (BCRC, Taiwan) and were incubated either in McCoy’s 5 A medium or RPMI-1640 medium (Thermo Fisher Scientific, Walthma, MA, USA), supplemented with 10% foetal bovine serum and 1% Penicillin-Streptomycin-Amphotericin B Solution (Biological Industries, Kibbutz Beit-Haemek, Israel) at 37 °C in a humidified atmosphere with 5% CO2.
(§3) SRB (sulforhodamine B, Sigma Chemical Co, St Louis, MO, USA) assay was used to analyse cell proliferation. Cells were seeded in 96-well plates at a density of 5000 cells/well and then treated with various concentrations of indicated compounds for 48 h. Cells were fixed with 10% TCA (trichloroacetic acid), washed with PBS, and stained with 100 µL SRB solution (0.4% SRB in 1% acetic acid) for 15 min. Then, cells were washed three times with 1% acetic acid and dissolved in the trizma base solution (10 mM). The absorbance was measured by an ELISA reader (Beckman Coulter Diagnostics, Brea, CA, USA) at […].

HCT116 cells [2] = assay: SRB cell proliferation assay; format: cell-based; conditions: Homo sapiens, HCT-116, 48 h, read-out: GI50 (50% of growth inhibition)
Protocol: as §2, §3

HT29 cells [3] = assay: SRB cell proliferation assay; format: cell-based; conditions: Homo sapiens, HT-29, 48 h, read-out: GI50 (50% of growth inhibition)
Protocol: as §2, §3

H1299 cells [4] = assay: MTT cell viability assay; format: cell-based; conditions: Homo sapiens, NCI-H1299, 72 h, read-out: IC50 (cell survival)
Protocol: as §2
(§4) Cell viability was determined by MTT (3–(4,5-dimethylthiazol-2-yl)-2,5-diphenyltetrazolium bromide, Sigma Chemical Co, St. Louis, MO, USA) assay. Cells were seeded in 96-well plates at a density of 5,000 cells/well in a regular culture medium overnight. Then, the cells were treated with various concentrations of indicated compounds for 72 h. After that, the medium was removed, 100 µL MTT solution (0.5 mg/ml in phosphate-buffered saline, PBS) was added to each well and then incubated for 1 h at 37 °C. The insoluble formazan dyes, representing the active mitochondrial dehydrogenase in live cells, were dissolved in the dimethyl sulfoxide (DMSO). The absorbance was analysed by an ELISA reader (Beckman Coulter, Brea, CA, USA) at 550 nm.

HCT116 cells [5] = assay: MTT cell viability assay; format: cell-based; conditions: Homo sapiens, HCT-116, 72 h, read-out: IC50 (cell survival)
Protocol: as §2, §4

HT29 cells [6] = assay: MTT cell viability assay; format: cell-based; conditions: Homo sapiens, HT-29, 72 h, read-out: IC50 (cell survival)
Protocol: as §2, §4

HT-29 cells = assay: Cell cycle distribution by flow cytometry; format: cell-based, Human
Protocol: The cell cycle distribution was measured by flow cytometry. HT-29 cells were treated with or without the indicated concentrations of compound 1 for 24 or 48 h or 72 h. The cells were harvested by trypsinizing and fixed in ice-cold 75% ethanol for 1 h at −20 °C. The samples were washed with PBS and resuspended in the proper amount of DNA extraction buffer, containing 0.2 M Na2HPO4 and 0.1 M citric acid pH 7.8, for 30 min. Then the cells were washed again with PBS and stained with propidium iodide solution containing 100 µg/ml RNaseA, 80 µg/ml propidium iodide and 0.1% Triton X-100, which were all in PBS. Finally, cell cycle distribution was determined and performed by utilising BD Accuri™ and C6 Software (BD Biosciences, Franklin Lakes, NJ, USA).

[7] = system: panel of around 70 kinases; assay: Kinase selectivity (Thermo Fisher SelectScreen kinome panel); format: biochemical; conditions: concentration selected based on IC50 values
Protocol: The kinase selectivity of selected compounds was performed by Thermo Fisher Select Screen service. A kinome screen occurred across a panel of roughly 70 kinases. Conditions and analyses are available online (www.thermofisher.com/selectscreen).
To evaluate the selectivity of the inhibitors identified in this study, a biochemical assay was conducted by ThermoFisher Scientific. A panel of around 70 kinases from different kinase families as well as all available members of the STE kinase family, was selected for testing (Supplemental Figure 3). The concentration of the compound was selected based on their IC50 values. […] The target kinase in this study, MAP4K5 and TAOK1, belong to the STE20 kinase family. Of the kinases inhibited by compounds 1 and 2, we found eight and three of the kinases to belong to the STE20 kinase family. Together, this implies that the inhibitors identified in this study are selective towards the STE20 kinase family.

HCT116, HT29 and H1299 = assay: Single-concentration SRB and MTT assays in cancer cell lines; format: cell-based, Human; conditions: for Effect in cell-based experiments: HCT116, HT-29, H1299
Protocol: as §2, §4, §3

T1 sequence (Q9Y4K4 whole entry): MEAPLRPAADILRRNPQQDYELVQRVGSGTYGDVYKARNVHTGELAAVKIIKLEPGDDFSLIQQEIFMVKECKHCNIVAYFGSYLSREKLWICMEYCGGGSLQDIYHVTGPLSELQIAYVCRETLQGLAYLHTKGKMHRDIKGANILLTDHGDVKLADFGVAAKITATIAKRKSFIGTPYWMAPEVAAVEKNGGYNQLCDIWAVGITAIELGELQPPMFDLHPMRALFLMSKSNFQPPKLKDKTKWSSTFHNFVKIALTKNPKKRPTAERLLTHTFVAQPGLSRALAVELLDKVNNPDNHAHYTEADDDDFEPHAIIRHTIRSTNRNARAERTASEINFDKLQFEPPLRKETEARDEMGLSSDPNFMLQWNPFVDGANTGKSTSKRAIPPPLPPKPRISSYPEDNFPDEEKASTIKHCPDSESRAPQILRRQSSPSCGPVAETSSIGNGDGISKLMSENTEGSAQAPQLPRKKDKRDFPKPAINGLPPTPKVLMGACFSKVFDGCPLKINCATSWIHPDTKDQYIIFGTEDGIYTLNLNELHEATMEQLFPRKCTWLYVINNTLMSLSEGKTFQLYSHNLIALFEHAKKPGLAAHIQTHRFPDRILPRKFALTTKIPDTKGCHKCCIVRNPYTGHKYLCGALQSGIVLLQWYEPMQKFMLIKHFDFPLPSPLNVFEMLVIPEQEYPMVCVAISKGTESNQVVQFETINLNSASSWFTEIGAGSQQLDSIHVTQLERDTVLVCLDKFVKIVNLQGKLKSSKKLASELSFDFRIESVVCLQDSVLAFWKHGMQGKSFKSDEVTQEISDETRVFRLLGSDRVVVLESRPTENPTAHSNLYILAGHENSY

IC50 (MAP4K5)	Inhibition percentage at 10 μM MAP4K5 (MAP4K5)	IC50 (TAOK1)	Inhibition percentage at 10 μM TAOK1 (TAOK1)	Number of kinases inhibited in panel [7]	inhibition at 10 µM (MAP4K5)	inhibition at 10 µM (TAOK1)	Structure (SMILES)	other results
2.25 µM	≥ 50% and 84%	4.15 µM	≥ 50% and 74%	nine	–	–	CCN1CCN(CCNc2nccc(-c3c(-c4cccc(O)c4)nc4sccn34)n2)S1(=O)=O [Compound 1]	GI50 (H1299 cells [1]): 19.2 µM; GI50 (HCT116 cells [2]): 3.9 µM; GI50 (HT29 cells [3]): 6.8 µM; IC50 (H1299 cells [4]): 23.6 µM; IC50 (HCT116 cells [5]): 13.3 µM; IC50 (HT29 cells [6]): 13.3 µM; Number of G0/G1-phase cells (HT-29 cells; HT29, 24 h treatment): increased in a concentration-dependent manner; Cell cycle effect (HT-29 cells; HT-29, 24 h): arrested cancer cells at the G0/G1 phase; Number of inhibited kinases belonging to the STE20 kinase family [7]: eight; Cancer cell proliferation (SRB) at 10 µM and survival (MTT) at 30 µM (HCT116, HT29 and H1299; 10 µM for 48 h (SRB), 30 µM for 72 h (MTT), HCT116, HT29, H1299): significantly inhibited
2 µM	≥ 50% and 77%	1.83 µM	≥ 50% and 84%	five	–	–	Nc1nc(N)c2nc(-c3ccc(O)cc3)c(-c3ccc(O)cc3)nc2n1 [Compound 2]	Number of inhibited kinases belonging to the STE20 kinase family [7]: three; Effect in cell-based experiments (HCT116, HT29 and H1299): limited effects
–	–	–	–	–	44%	1%	O=C(Nc1nc2ccccc2[nH]1)c1ccc(C(=O)Nc2nc3ccccc3[nH]2)cc1 [Compound 5]	–
–	–	–	–	–	41%	12%	CC(=O)Nc1ccc(Nc2nc(Cl)nc(Nc3ccc(NC(C)=O)cc3)n2)cc1 [Compound 6]	–

The remaining lines, values behind:

Structure (SMILES)	IC50 (MAP4K5)	Inhibition percentage at 10 μM MAP4K5 (MAP4K5)	IC50 (TAOK1)	Inhibition percentage at 10 μM TAOK1 (TAOK1)	Number of kinases inhibited in panel [7]	inhibition at 10 µM (MAP4K5)	inhibition at 10 µM (TAOK1)	other results
Nc1ncnc2nc(-c3ccc(C(=O)c4ccc([N+](=O)[O-])cc4)cc3)[nH]c12 [Compound 3]	6.28 µM	51%	5.3 µM	63%	23 kinases	≥ 50%	≥ 50%	Effect in cell-based experiments (HCT116, HT29 and H1299): limited effects
Nc1nnc(N)c2nc(-c3ccccc3)c(-c3ccccc3)nc12 [Compound 4]	–	–	–	–	–	54%	19%	–
CC1=C(C(=O)Nc2cccc3c2C(=O)NC3=O)CC(C(=O)Nc2cccc3c2C(=O)NC3=O)=C(C)N1 [Compound 7]	–	–	–	–	–	47%	4%	–
